Experimental data from ChEMBL document CHEMBL1151757, “Synthesis, radiosynthesis, and biological evaluation of fluorine-18-labeled 2beta-carbo(fluoroalkoxy)-3beta-(3'-((Z)-2-haloethenyl)phenyl)nortropanes: candidate radioligands for in vivo imaging of the serotonin transporter with positron emission tomography” (J Med Chem, 2008).

Key:
[1] = Ratio of drug uptake in pons to cerebellum in anesthetized cynomolgus monkey after 85 mins postinjection; assay type: ADME, organism-based, Macaca fascicularis; settings: in vivo
[2] = Ratio of drug uptake in pons to cerebellum in anesthetized cynomolgus monkey after 95 mins postinjection; assay type: ADME, organism-based, Macaca fascicularis; settings: in vivo
[3] = Drug uptake in anesthetized cynomolgus monkey brain occipital lobe after 6.5 mins postinjection; assay type: ADME, organism-based, Macaca fascicularis; design: unit not given here; settings: in vivo
[4] = Drug uptake in anesthetized cynomolgus monkey brain occipital lobe after 65 mins postinjection; assay type: ADME, organism-based, Macaca fascicularis; settings: in vivo
[5] = Drug uptake in anesthetized cynomolgus monkey brain frontal lobe after 2.5 mins postinjection; assay type: ADME, organism-based, Macaca fascicularis; settings: in vivo
[6] = Drug uptake in anesthetized cynomolgus monkey brain frontal lobe after 27.5 mins postinjection; assay type: ADME, organism-based, Macaca fascicularis; settings: in vivo
[7] = Drug uptake in anesthetized cynomolgus monkey brain frontal lobe after 35 mins postinjection; assay type: ADME, organism-based, Macaca fascicularis; settings: in vivo
[8] = Drug uptake in anesthetized cynomolgus monkey brain frontal lobe after 95 mins postinjection; assay type: ADME, organism-based, Macaca fascicularis; settings: in vivo
[9] = Drug uptake in anesthetized cynomolgus monkey brain frontal lobe after 215 mins postinjection; assay type: ADME, organism-based, Macaca fascicularis; settings: in vivo
[10] = Ratio of drug uptake in occipital lobe to cerebellum in anesthetized cynomolgus monkey after 175 mins postinjection; assay type: ADME, organism-based, Macaca fascicularis; settings: in vivo
[11] = system: Putamen; experiment: Drug uptake in anesthetized cynomolgus monkey brain putamen after 145 mins postinjection; assay type: ADME, organism-based, Macaca fascicularis; settings: in vivo
[12] = system: Putamen; experiment: Drug uptake in anesthetized cynomolgus monkey brain putamen after 165 mins postinjection; assay type: ADME, organism-based, Macaca fascicularis; settings: in vivo, 2.75 h
[13] = system: Putamen; experiment: Drug uptake in anesthetized cynomolgus monkey brain putamen after 235 mins postinjection; assay type: ADME, organism-based, Macaca fascicularis; settings: in vivo
[14] = Ratio of drug uptake in occipital lobe to cerebellum in anesthetized cynomolgus monkey after 235 mins postinjection; assay type: ADME, organism-based, Macaca fascicularis; settings: in vivo
[15] = Ratio of drug uptake in frontal lobe to cerebellum in anesthetized cynomolgus monkey after 95 mins postinjection; assay type: ADME, organism-based, Macaca fascicularis; settings: in vivo
[16] = system: Pons; experiment: Drug uptake in anesthetized cynomolgus monkey brain pons after 0.5 mins postinjection; assay type: ADME, organism-based, Macaca fascicularis; settings: in vivo
[17] = system: Pons; experiment: Drug uptake in anesthetized cynomolgus monkey brain pons after 3.5 mins postinjection; assay type: ADME, organism-based, Macaca fascicularis; settings: in vivo
[18] = system: Pons; experiment: Drug uptake in anesthetized cynomolgus monkey brain pons after 4.5 mins postinjection; assay type: ADME, organism-based, Macaca fascicularis; settings: in vivo, 0.075 h
[19] = system: Pons; experiment: Drug uptake in anesthetized cynomolgus monkey brain pons after 105 mins postinjection; assay type: ADME, organism-based, Macaca fascicularis; settings: in vivo, 1.75 h
[20] = system: Pons; experiment: Drug uptake in anesthetized cynomolgus monkey brain pons after 165 mins postinjection; assay type: ADME, organism-based, Macaca fascicularis; settings: in vivo, 2.75 h
[21] = system: Pons; experiment: Drug uptake in anesthetized cynomolgus monkey brain pons after 175 mins postinjection; assay type: ADME, organism-based, Macaca fascicularis; settings: in vivo
[22] = system: Medulla; experiment: Drug uptake in anesthetized cynomolgus monkey brain medulla after 0.5 mins postinjection; assay type: ADME, organism-based, Macaca fascicularis; settings: in vivo
[23] = system: Medulla; experiment: Drug uptake in anesthetized cynomolgus monkey brain medulla after 4.5 mins postinjection; assay type: ADME, organism-based, Macaca fascicularis; settings: in vivo, 0.075 h
[24] = system: Medulla; experiment: Drug uptake in anesthetized cynomolgus monkey brain medulla after 9.5 mins postinjection; assay type: ADME, organism-based, Macaca fascicularis; settings: in vivo
[25] = system: Medulla; experiment: Drug uptake in anesthetized cynomolgus monkey brain medulla after 105 mins postinjection; assay type: ADME, organism-based, Macaca fascicularis; settings: in vivo, 1.75 h
[26] = Ratio of drug uptake in putamen to cerebellum in anesthetized cynomolgus monkey after 9.5 mins postinjection; assay type: ADME, organism-based, Macaca fascicularis; settings: in vivo
[27] = Ratio of drug uptake in putamen to cerebellum in anesthetized cynomolgus monkey after 35 mins postinjection; assay type: ADME, organism-based, Macaca fascicularis; settings: in vivo
[28] = system: Medulla; experiment: Drug uptake in anesthetized cynomolgus monkey brain medulla after 125 mins postinjection; assay type: ADME, organism-based, Macaca fascicularis; settings: in vivo
[29] = system: Medulla; experiment: Drug uptake in anesthetized cynomolgus monkey brain medulla after 235 mins postinjection; assay type: ADME, organism-based, Macaca fascicularis; settings: in vivo
[30] = Drug uptake in anesthetized cynomolgus monkey brain cerebellum after 0.5 mins postinjection; assay type: ADME, organism-based, Macaca fascicularis; settings: in vivo
[31] = Ratio of drug uptake in putamen to cerebellum in anesthetized cynomolgus monkey after 215 mins postinjection; assay type: ADME, organism-based, Macaca fascicularis; settings: in vivo
[32] = Ratio of drug uptake in thalamus to cerebellum in anesthetized cynomolgus monkey after 155 mins postinjection; assay type: ADME, organism-based, Macaca fascicularis; settings: in vivo
[33] = system: Caudate; experiment: Drug uptake in anesthetized cynomolgus monkey brain caudate after 2.5 mins postinjection; assay type: ADME, organism-based, Macaca fascicularis, Caudate nucleus; settings: in vivo
[34] = system: Caudate; experiment: Drug uptake in anesthetized cynomolgus monkey brain caudate after 3.5 mins postinjection; assay type: ADME, organism-based, Macaca fascicularis, Caudate nucleus; settings: in vivo
[35] = system: Caudate; experiment: Drug uptake in anesthetized cynomolgus monkey brain caudate after 22.5 mins postinjection; assay type: ADME, organism-based, Macaca fascicularis, Caudate nucleus; settings: in vivo, 0.375 h
[36] = system: Caudate; experiment: Drug uptake in anesthetized cynomolgus monkey brain caudate after 55 mins postinjection; assay type: ADME, organism-based, Macaca fascicularis, Caudate nucleus; settings: in vivo
[37] = system: Caudate; experiment: Drug uptake in anesthetized cynomolgus monkey brain caudate after 95 mins postinjection; assay type: ADME, organism-based, Macaca fascicularis, Caudate nucleus; settings: in vivo
[38] = system: Caudate; experiment: Drug uptake in anesthetized cynomolgus monkey brain caudate after 235 mins postinjection; assay type: ADME, organism-based, Macaca fascicularis, Caudate nucleus; settings: in vivo
[39] = system: Thalamus; experiment: Drug uptake in anesthetized cynomolgus monkey brain thalamus after 3.5 mins postinjection; assay type: ADME, organism-based, Macaca fascicularis; design: unit not given here; settings: in vivo
[40] = system: Putamen; experiment: Drug uptake in anesthetized cynomolgus monkey brain putamen after 9.5 mins postinjection; assay type: ADME, organism-based, Macaca fascicularis; design: unit not given here; settings: in vivo
[41] = system: Thalamus; experiment: Drug uptake in anesthetized cynomolgus monkey brain thalamus after 55 mins postinjection; assay type: ADME, organism-based, Macaca fascicularis; design: unit not given here; settings: in vivo
[42] = system: Thalamus; experiment: Drug uptake in anesthetized cynomolgus monkey brain thalamus after 65 mins postinjection; assay type: ADME, organism-based, Macaca fascicularis; design: unit not given here; settings: in vivo
[43] = system: Midbrain; experiment: Drug uptake in anesthetized cynomolgus monkey brain midbrain after 3.5 mins postinjection; assay type: ADME, organism-based, Macaca fascicularis; design: unit not given here; settings: in vivo
[44] = system: Midbrain; experiment: Drug uptake in anesthetized cynomolgus monkey brain midbrain after 22.5 mins postinjection; assay type: ADME, organism-based, Macaca fascicularis; design: unit not given here; settings: in vivo, 0.375 h
[45] = system: Midbrain; experiment: Drug uptake in anesthetized cynomolgus monkey brain midbrain after 27.5 mins postinjection; assay type: ADME, organism-based, Macaca fascicularis; design: unit not given here; settings: in vivo
[46] = system: Midbrain; experiment: Drug uptake in anesthetized cynomolgus monkey brain midbrain after 55 mins postinjection; assay type: ADME, organism-based, Macaca fascicularis; design: unit not given here; settings: in vivo
[47] = system: Midbrain; experiment: Drug uptake in anesthetized cynomolgus monkey brain midbrain after 75 mins postinjection; assay type: ADME, organism-based, Macaca fascicularis; design: unit not given here; settings: in vivo, 1.25 h
[48] = system: Midbrain; experiment: Drug uptake in anesthetized cynomolgus monkey brain midbrain after 85 mins postinjection; assay type: ADME, organism-based, Macaca fascicularis; design: unit not given here; settings: in vivo
[49] = system: Midbrain; experiment: Drug uptake in anesthetized cynomolgus monkey brain midbrain after 125 mins postinjection; assay type: ADME, organism-based, Macaca fascicularis; design: unit not given here; settings: in vivo

Work on O=C(OCC[18F])C1C2CCC(CC1c1cccc(/C=C\I)c1)N2 (centres undefined) yielded a Ratio [1] of 1.1, a Ratio [2] of 1.2 and a Drug uptake [3] of 2. For the same compound, the Drug uptake [4] was 2.86, the Drug uptake [5] was 0.28 and the Drug uptake [6] was 2.82. For the same compound, the Drug uptake [7] was 2.89, the Drug uptake [8] was 2.53 and the Drug uptake [9] was 1.51. The Ratio [10] was 1, the Drug uptake [11] was 3.27 and the Drug uptake [12] was 3.02. For the same compound, the Drug uptake [13] was 2.35, the Ratio [14] was 0.9 and the Ratio [15] was 1. For the same compound, the Drug uptake [16] was 0, the Drug uptake [17] was 0.77 and the Drug uptake [18] was 1.2. The Drug uptake [19] was 3.01, the Drug uptake [20] was 2.46 and the Drug uptake [21] was 2.36. The Drug uptake [22] was 0, the Drug uptake [23] was 1.8 and the Drug uptake [24] was 3.15. It also gave a Drug uptake [25] of 3.58, a Ratio [26] of 0.9 and a Ratio [27] of 1.1. The Drug uptake [28] was 3.27, the Drug uptake [29] was 2.32 and the Drug uptake [30] was 0. It also gave a Ratio [31] of 1.8, a Ratio [32] of 1.8 and a Drug uptake [33] of 0.37. It also gave a Drug uptake [34] of 0.79, a Drug uptake [35] of 3.32 and a Drug uptake [36] of 3.72. The Drug uptake [37] was 3.39, the Drug uptake [38] was 1.99 and the Drug uptake [39] was 0.96. It also gave a Drug uptake [40] of 3.07, a Drug uptake [41] of 4.29 and a Drug uptake [42] of 4.26. It also gave a Drug uptake [43] of 1.19, a Drug uptake [44] of 4.56 and a Drug uptake [45] of 4.71. The Drug uptake [46] was 4.91, the Drug uptake [47] was 4.76 and the Drug uptake [48] was 4.67. It also gave a Drug uptake [49] of 4.08.
